In US20250325793A1, “INTRACALVARIOSSEOUS DRUG ADMINISTRATION DEVICE FOR DELIVERING DRUG BY BYPASSING BLOOD-BRAIN BARRIER” (GACHON UNIVERSITY OF INDUSTRY-ACADEMIC COOPERATION …, priority 2023, published 2025):
Counter-ions that a name gives are not always drawn.

Assays:
[1] = Plasma, brain interstitial fluid (microdialysis) and whole-brain drug levels after intravenous (IV) and intracalvariosseous (ICO) administration; format: in vivo, rat; settings: for AUCISF of the ICO administration group compared with the IV administration group: brain interstitial fluid (microdialysis, right hippocampus); for brain-to-plasma ratio (Kp), ICO administration group relative to IV administration group: at 24 hours after administration; for brain-to-plasma ratio (Kp), ICO administration group relative to IV administration group / Cbr (brain drug concentration), ICO administration group relative to IV administration group: fold higher in ICO (5 mg/kg) than IV (0.5 mg/kg); for AUCplasma of the ICO administration group compared with the IV administration group: rat plasma; for Cbr (brain drug concentration), ICO administration group relative to IV administration group: whole brain at 24 hours after administration
Method: The experiment was performed with 5-week-old male rats weighing […]. To ensure statistical independence, only male rats were used in each experiment.
Eight rats were randomly assigned to the IV and ICO administration groups for each compound and were administered continuously from the next day (n=4).
In order to perform the experiment, the drug administration device of the present disclosure should be installed on the rats in the ICO administration group, and a guide cannula for a microdialysis probe for measuring the concentration of drugs in the brain should be installed on the rats in both the ICO administration group and the IV administration group.
As illustrated in FIG. 9 and FIG. 10, the drug administration device was installed on the left side of the skull of the rats in the ICO administration group, and the guide cannula was installed on the right side, while only the guide cannula was implanted in the skull of the IV administration group.
Then, in order to implant the microdialysis guide cannula, the rats in the ICO and IV administration groups were anesthetized with isoflurane, and a small hole was drilled in the skull, and the guide cannula was inserted into the right hippocampus (see FIGS. 9 and 10). The inserted guide cannula was fixed with dental cement, and the skin wound was sutured, and then the rats were allowed to recover from the surgery in the cage for one day.
Before the drug administration, the membrane of the microdialysis probe was soaked in ethanol and artificial cerebrospinal fluid (aCSF) buffer was perfused through the microdialysis probe at a flow rate of 0.5 μl/min for 1 hour for stabilization.
In addition, the ICO administration group was administered at a dose of 5 mg/kg by filling the drug into the receiving portion 100 of the drug administration device.
The perfusate of the microdialysis probe was collected every 30 minutes for […] between 8 and 24 hours after administration.
The dialysate samples were stored at […] until the time of LC-MS/MS analysis (tandem mass spectrometry).
Blood samples were immediately centrifuged at 10,000 rpm for 10 minutes at 4° C. to recover plasma. In the case of TMZ, blood samples collected after administration were immediately centrifuged and then 10 μl of plasma was acidified with 2 μl of 0.1% formic acid.
Brains were excised 24 hours after administration, and PBS (phosphate buffer saline) corresponding to the weight of each tissue sample was added, followed by homogenization using a homogenizer.
Plasma and homogenized brain tissue samples were stored at […] until LC-MS/MS analysis.
The areas under the curve in plasma (AUCplasma) and interstitial fluid (ISF) concentration-time curves (AUCISF) were determined by noncompartmental analysis using WinNonlin 2.1. Brain concentration (Cbr) in the whole brain at 24 hours was corrected for the plasma volume of the corresponding organ using the Expression below, which was determined using LC-MS/MS.
In the above Expression, Cbr, quant, 24 h is the brain drug concentration (ng/g) at 24 hours quantified by LC-MS/MS, V0 is the plasma volume of the corresponding organ (μl/g), Cplasma, 24 h at 24 hours is the plasma concentration (ng/ml), and the V0 value for the brain was selected as 9.3±1.1 μl/g.
Compared to IV administration, the extent of brain uptake after ICO administration was expressed as brain availability (Fbr), which is similar to systemic bioavailability (F), and was calculated as the ratio of AUCISF, IV and AUCISF, ICO using the Expression below.
In the above Expression, AUCISF,ICO and AUCISF,IV are the areas under the curves in the brain interstitial fluid-time plot (AUCISF) up to 24 hours after ICO administration and IV administration, respectively.

[2] = Near-infrared (NIR) fluorescence imaging of ICG diffusion in the skull after administration through the installed device; format: in vivo, rat; settings: 24 hours after 50 μl of ICG (500 μg/ml in saline), NIR fluorescence image
Method: Next, the integrity of the drug administration device installed in the skull of the rat was tested by near-infrared (NIR) fluorescence imaging using indocyanine green (IGC).
The diffusion of ICG into the rat skull was observed by the near-infrared fluorescence imaging of the drug administration device installed in the thinned rat skull.
50 μl of ICG (500 μg/ml in saline) was administered to the rat with the drug administration device installed. After 24 hours, the rat was anesthetized, placed in a stereotaxic position, and the scalp was cut. For the ICG-NIR fluorescence imaging, a 780 nm laser with 150 mW output was set at a distance of 80 mm and an angle of 20° from the target through a C-clamp on a Z stand for a laser spot size of 15 mm width and 25 mm length, and fluorescence images were recorded at 1 frame per second using basedcam2 software while NIR light was administered through the 780 nm laser.

[3] = up to 24 h, ICO 5 mg/kg vs IV 0.5 mg/kg

Row | Compound | AUCISF of the ICO administration group compared with the IV administration group [1, 3] | brain-to-plasma ratio (Kp), ICO administration group relative to IV administration group [1] [times] | AUC ratio (%, AUCISF/AUCplasma), ICO administration group relative to IV administration group ([1]; fold higher in ICO than IV group, ICO 5 mg/kg vs IV 0.5 mg/kg) [times] | AUCplasma of the ICO administration group compared with the IV administration group [1, 3] | Cbr (brain drug concentration), ICO administration group relative to IV administration group [1] [times] | AUCISF after ICO administration ([1]; ICO 5 mg/kg, brain interstitial fluid, up to 24 h) [ng/min/mL] | ISF concentration after IV administration ([1]; IV 0.5 mg/kg, all time points, brain interstitial fluid) | ICG signal in the left skull where the drug administration device was installed [2] | ICG signal in the right skull [2]
1 | CCN(C)C(=O)Oc1cccc([C@H](C)N(C)C)c1.O=C(O)C(O)C(O)C(=O)O [RVG, rivastigmine i-tartrates] | relatively higher |  |  |  |  |  |  |  | 
2 | Cn1nnc2c(C(N)=O)ncn2c1=O [TMZ, temozolomide] | relatively higher | 1.9 | 3.0 | relatively lower | 3.4 |  |  |  | 
3 | CC(=O)O[C@H]1C(=O)[C@@]2(C)[C@H]([C@H](OC(=O)c3ccccc3)[C@]3(O)C[C@H](OC(=O)[C@H](O)[C@@H](NC(=O)c4ccccc4)c4ccccc4)C(C)=C1C3(C)C)[C@]1(OC(C)=O)CO[C@@H]1C[C@@H]2O [PTX, paclitaxel] | relatively higher |  |  | relatively lower | 294.1 | 796.55 | below the limit of detection (LOD) |  | 
4 | CC1(C)C(/C=C/C=C/C=C/C=C2\N(CCCCS(=O)(=O)O)c3ccc4ccccc4c3C2(C)C)=[N+](CCCCS(=O)(=O)[O-])c2ccc3ccccc3c21 [ICG, indocyanine green] |  |  |  |  |  |  |  | brightly lit | no signal was observed
5 | [2H]C([2H])(N)C([2H])([2H])C([2H])([2H])C(=O)O [GABA, gamma-aminobutyric acid-d6] | relatively higher | 3.4 |  | relatively lower | 3.1 |  |  |  | 
6 | CN(C)CCCN1c2ccccc2Sc2ccc(Cl)cc21 [CPZ, Chlorpromazine hydrochloride] | no different | 35.3 |  | relatively lower | 85.1 |  |  |  | 
7 | Cc1nc2n(c(=O)c1CCN1CCC(c3noc4cc(F)ccc34)CC1)CCCC2 [RIS, risperidone] | relatively higher |  |  | relatively lower |  |  |  |  | 
